One assay has as its target T1, AR H874Y (Homo sapiens, UniProt P10275, H875Y).
T1 construct: expressed in transfected cells; host or cells: HepG2
T1 sequence (P10275 1-920 H875Y): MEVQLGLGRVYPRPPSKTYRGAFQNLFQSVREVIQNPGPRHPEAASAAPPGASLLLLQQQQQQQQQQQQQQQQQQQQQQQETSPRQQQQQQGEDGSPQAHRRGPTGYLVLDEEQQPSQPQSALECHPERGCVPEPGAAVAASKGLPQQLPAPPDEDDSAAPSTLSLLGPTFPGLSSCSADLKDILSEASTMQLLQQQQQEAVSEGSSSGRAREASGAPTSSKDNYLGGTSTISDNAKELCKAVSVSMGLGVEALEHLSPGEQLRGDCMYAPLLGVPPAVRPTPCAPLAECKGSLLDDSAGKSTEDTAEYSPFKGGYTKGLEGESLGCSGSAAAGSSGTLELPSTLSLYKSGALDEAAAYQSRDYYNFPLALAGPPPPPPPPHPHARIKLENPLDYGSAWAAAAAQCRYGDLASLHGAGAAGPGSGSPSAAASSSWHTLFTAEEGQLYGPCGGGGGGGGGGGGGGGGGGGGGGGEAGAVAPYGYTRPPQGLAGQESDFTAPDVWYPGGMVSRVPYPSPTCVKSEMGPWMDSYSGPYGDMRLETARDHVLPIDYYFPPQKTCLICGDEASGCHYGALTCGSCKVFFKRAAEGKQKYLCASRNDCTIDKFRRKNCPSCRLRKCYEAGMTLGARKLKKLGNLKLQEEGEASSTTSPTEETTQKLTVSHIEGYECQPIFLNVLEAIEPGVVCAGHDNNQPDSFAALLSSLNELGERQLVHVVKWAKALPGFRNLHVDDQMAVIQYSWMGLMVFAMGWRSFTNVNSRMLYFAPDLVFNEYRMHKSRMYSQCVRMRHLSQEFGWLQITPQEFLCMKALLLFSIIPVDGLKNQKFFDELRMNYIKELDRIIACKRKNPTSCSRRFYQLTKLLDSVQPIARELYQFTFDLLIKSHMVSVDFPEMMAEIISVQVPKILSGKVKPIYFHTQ
Nature of the assay: Luciferase transcriptional reporter assay, mutant AR, HepG2, antagonist mode. It is filed as cell-based. The following applies: HepG2, 90 pM R1881, 48 hours; * denotes incomplete inhibition (otherwise 100%); read-out: Antagonism; IC50, AR construct H874Y. The protocol:
(§1) HepG2 cells were maintained in EMEM supplemented with 10% FBS. One day before transfection, the media was changed to EMEM with 10% CSS. T-150 flasks were transiently transfected using 120 μL Lipofectamine 2000 (Life Technologies), 30 μg mutant cDNA (expression vector)—mutant cDNA tested were L701H, T877A, W741C and H874Y—and 40 μg 4×ARE-Luciferase (reporter vector) in OptiMEM and the flasks were incubated overnight. Cells were then trypsinized, counted and resuspended at 500,000 cells/mL. For agonist mode, the compounds of Formula (I) are serially diluted and 50 μL of the compound added per well. 50 μL of the cells are added to each well and incubated for 48 hours. For antagonist mode, a final concentration of 90 pM R1881 was added to the diluted compounds and incubated for 48 hours. The plates were then assayed using SteadyGlo and read on the Envision. Percent Stimulation and Inhibition is determined and analyzed using GraphPad Prism.
(§2) All values are calculated relative to the activity of R1881 induced androgen receptor activity (n≧3).
A general note: A reporter such as luciferase makes a cellular process visible.

Another assay has as its target T2, AR L701H (Homo sapiens, UniProt P10275, L702H).
T2 construct: expressed in transfected cells; host or cells: HepG2
T2 sequence (P10275 1-920 L702H): T1 sequence (P10275 1-920 H875Y) with L702H, Y875H
The assay is described as above. Format: cell-based. As to conditions: HepG2, 90 pM R1881, 48 hours; * denotes incomplete inhibition (otherwise 100%); read-out: Antagonism; IC50, AR construct L701H. How it is done:
as §1, §2

Numbering of substitutions follows the chain as printed. pIC50: −log10 of the molar value.

Regarding `N#Cc1ncc(N2C(=O)C3(CCC3)N(c3ccc(OC4CCNCC4)cc3)C2=S)cc1C(F)(F)F` [Cpd 35, 5-[5-oxo-8-[4-(4-piperidyloxy)phenyl]-7-thioxo-6,8-diazaspiro[3.4]octan-6-yl]-3-(trifluoromethyl)pyridine-2-carbonitrile], the pIC50 at AR H874Y is 5.71; on AR L701H it was 5.47.

Source of the values: US20180008587A1, “THIOHYDANTOIN ANDROGEN RECEPTOR ANTAGONISTS FOR THE TREATMENT OF CANCER” (Jaressen Pharmaceutica NV, priority 2016, published 2018).
